From PubChem BioAssay AID328 (DTP/NCI, 2004)
“And” between values parts separate entries of the source, which are not always exact repeats. Identical values can stand only once. Inconclusive results and toxic doses are left out.

System: BDF1 mice, P388 leukemia ip, median survival T/C
Test: NCI In Vivo Anticancer Drug Screen. Data for tumor model P388 Leukemia (intraperitoneal) in B6D2F1 (BDF1) mice
Conditions: endpoint: median survival time, higher = longer survival
Outline: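 Each value expresses how treatment altered survival: treated-mouse outcome over vehicle-mouse outcome, both groups bearing the transplanted tumour.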

[1] = dose: 25.0 mg/kg/injection, schedule: Q01DX009 (ip), vehicle: saline with Tween-80
[2] = dose: 100.0 mg/kg/injection, schedule: Q01DX009 (ip), vehicle: saline with Tween-80
[3] = dose: 200.0 mg/kg/injection, schedule: Q01DX009 (ip), vehicle: saline with Tween-80
[4] = dose: 100.0 mg/kg/injection, schedule: Q04DX003 (ip), vehicle: Klucel (hydroxypropylcellulose) (HPC)
[5] = dose: 200.0 mg/kg/injection, schedule: Q04DX003 (ip), vehicle: Klucel (hydroxypropylcellulose) (HPC)
[6] = dose: 400.0 mg/kg/injection, schedule: Q04DX003 (ip), vehicle: Klucel (hydroxypropylcellulose) (HPC)

COc1ccc(-c2csc(-c3ccccc3)n2)cc1N=Cc1ccc(N(CCCl)CCCl)c(OC)c1
T/C (dose: 2.6 mg/kg/injection, schedule: Q04DX003 (ip), vehicle: saline with Tween-80): 118 % of control | T/C (dose: 4.0 mg/kg/injection, schedule: Q04DX003 (ip), vehicle: saline with Tween-80): 122 % of control | T/C (dose: 6.0 mg/kg/injection, schedule: Q04DX003 (ip), vehicle: saline with Tween-80): 90 % of control | T/C (dose: 13.0 mg/kg/injection, schedule: Q04DX003 (ip), vehicle: saline with Tween-80): 190 % of control | T/C (dose: 17.0 mg/kg/injection, schedule: Q01DX009 (ip), vehicle: saline with Tween-80): 240 % of control | T/C (dose: 20.0 mg/kg/injection, schedule: Q04DX003 (ip), vehicle: saline with Tween-80): 204 % of control | T/C [1]: 240 % of control | T/C (dose: 30.0 mg/kg/injection, schedule: Q04DX003 (ip), vehicle: saline with Tween-80): 271 % of control | T/C (dose: 37.0 mg/kg/injection, schedule: Q01DX009 (ip), vehicle: saline with Tween-80): 184 % of control | T/C (dose: 44.0 mg/kg/injection, schedule: Q04DX003 (ip), vehicle: saline with Tween-80): 242 % of control and 300 % of control | T/C (dose: 67.0 mg/kg/injection, schedule: Q04DX003 (ip), vehicle: saline with Tween-80): 272 % of control and 300 % of control | T/C [2]: 87 % of control

C=C1CCC2(C(C)C)CC12 (stereo not given)
T/C (dose: 100.0 mg/kg/injection, schedule: Q01DX001 (ip), vehicle: saline sonified): 109 % of control | T/C (dose: 200.0 mg/kg/injection, schedule: Q01DX001 (ip), vehicle: saline sonified): 104 % of control | T/C (dose: 400.0 mg/kg/injection, schedule: Q01DX001 (ip), vehicle: saline sonified): 104 % of control

O=C1C2CCCCC1C(N1CCCC1)CC2 (stereo not given)
T/C (dose: 100.0 mg/kg/injection, schedule: Q04DX003 (sc), vehicle: olive oil, sesame oil, peanut oil): 100 % of control | T/C (dose: 200.0 mg/kg/injection, schedule: Q04DX003 (sc), vehicle: olive oil, sesame oil, peanut oil): 86 % of control | T/C (dose: 400.0 mg/kg/injection, schedule: Q04DX003 (sc), vehicle: olive oil, sesame oil, peanut oil): 100 % of control

O=CCSC(=S)NNc1ccccc1
T/C (dose: 75.0 mg/kg/injection, schedule: Q01DX001 (ip), vehicle: Klucel (hydroxypropylcellulose) (HPC)): 110 % of control | T/C (dose: 150.0 mg/kg/injection, schedule: Q01DX001 (ip), vehicle: Klucel (hydroxypropylcellulose) (HPC)): 105 % of control | T/C (dose: 300.0 mg/kg/injection, schedule: Q01DX001 (ip), vehicle: Klucel (hydroxypropylcellulose) (HPC)): 95 % of control

Cc1cc(Cl)c2ccccc2c1N
T/C (dose: 44.0 mg/kg/injection, schedule: Q01DX009 (ip), vehicle: other): 100 % of control | T/C (dose: 66.0 mg/kg/injection, schedule: Q01DX009 (ip), vehicle: other): 110 % of control | T/C (dose: 100.0 mg/kg/injection, schedule: Q01DX009 (ip), vehicle: other): 115 % of control | T/C (dose: 150.0 mg/kg/injection, schedule: Q01DX009 (ip), vehicle: other): 110 % of control

C=CCCN1CCCC1
T/C (dose: 12.5 mg/kg/injection, schedule: Q01DX009 (ip), vehicle: saline with Tween-80): 88 % of control | T/C (dose: 12.5 mg/kg/injection, schedule: Q04DX003 (ip), vehicle: saline with Tween-80): 100 % of control | T/C [1]: 100 % of control | T/C (dose: 25.0 mg/kg/injection, schedule: Q04DX003 (ip), vehicle: saline with Tween-80): 100 % of control | T/C (dose: 50.0 mg/kg/injection, schedule: Q04DX003 (ip), vehicle: saline with Tween-80): 95 % of control

C=CC(c1ccccc1)C(O)(Cc1ccccc1)Cc1ccccc1 (stereo not given)
T/C (dose: 12.5 mg/kg/injection, schedule: Q01DX009 (ip), vehicle: DMSO): 116 % of control | T/C (dose: 50.0 mg/kg/injection, schedule: Q01DX009 (ip), vehicle: DMSO): 100 % of control

COc1cccc2c1C(=O)c1c(O)c3c(c(O)c1C2=O)CC(O)(/C(C)=N/NC(=O)c1cc(C(F)(F)F)cc(C(F)(F)F)c1)CC3OC1CC(N)C(O)C(C)O1 (stereo not given)
T/C (dose: 3.13 mg/kg/injection, schedule: Q04DX003 (ip), vehicle: water): 113 % of control | T/C (dose: 6.25 mg/kg/injection, schedule: Q04DX003 (ip), vehicle: water): 109 % of control | T/C (dose: 12.5 mg/kg/injection, schedule: Q04DX003 (ip), vehicle: water): 153 % of control | T/C (dose: 25.0 mg/kg/injection, schedule: Q04DX003 (ip), vehicle: water): 153 % of control | T/C (dose: 50.0 mg/kg/injection, schedule: Q04DX003 (ip), vehicle: water): 118 % of control

CCOC(=O)C(Cc1ccccc1)P(=O)(OCC)OCC (stereo not given)
T/C [2]: 109 % of control | T/C [3]: 104 % of control

NC(=O)c1[nH]nc(C2OC(CO)C(O)C2O)c1O (stereo not given)
T/C (dose: 0.25 mg/kg/injection, schedule: Q01DX009 (ip), vehicle: saline): 116 % of control | T/C (dose: 0.5 mg/kg/injection, schedule: Q04DX003 (ip), vehicle: saline): 99 % of control and 100 % of control and 104 % of control | T/C (dose: 0.62 mg/kg/injection, schedule: Q01DX009 (ip), vehicle: saline): 100 % of control | T/C (dose: 0.63 mg/kg/injection, schedule: Q01DX009 (ip), vehicle: saline): 113 % of control | T/C (dose: 1.0 mg/kg/injection, schedule: Q01DX009 (ip), vehicle: saline): 120 % of control | T/C (dose: 1.0 mg/kg/injection, schedule: Q04DX003 (ip), vehicle: saline): 103 % of control and 109 % of control | T/C (dose: 1.25 mg/kg/injection, schedule: Q01DX009 (ip), vehicle: saline): 100 % of control | T/C (dose: 2.0 mg/kg/injection, schedule: Q04DX003 (ip), vehicle: saline): 106 % of control and 108 % of control (2×) | T/C (dose: 4.0 mg/kg/injection, schedule: Q04DX003 (ip), vehicle: saline): 99 % of control and 115 % of control | T/C (dose: 5.0 mg/kg/injection, schedule: Q04DX003 (ip), vehicle: saline): 118 % of control | T/C (dose: 8.0 mg/kg/injection, schedule: Q04DX003 (ip), vehicle: saline): 100 % of control and 112 % of control and 123 % of control | T/C (dose: 10.0 mg/kg/injection, schedule: Q04DX003 (ip), vehicle: saline): 107 % of control | T/C (dose: 16.0 mg/kg/injection, schedule: Q04DX003 (ip), vehicle: saline): 123 % of control | T/C (dose: 20.0 mg/kg/injection, schedule: Q04DX003 (ip), vehicle: saline): 118 % of control

c1cc2c(c(NC3=NCCO3)c1)CCCC2
T/C (dose: 37.5 mg/kg/injection, schedule: Q01DX009 (ip), vehicle: saline with Tween-80): 113 % of control | T/C (dose: 75.0 mg/kg/injection, schedule: Q01DX009 (ip), vehicle: saline with Tween-80): 118 % of control | T/C (dose: 150.0 mg/kg/injection, schedule: Q01DX009 (ip), vehicle: saline with Tween-80): 120 % of control

C1CC[N-]CC1.C1CC[N-]CC1.CS(C)=O.[Cl][Rh]([Cl])[Cl]
T/C (dose: 8.3 mg/kg/injection, schedule: Q01DX009 (ip), vehicle: saline): 150 % of control | T/C (dose: 12.5 mg/kg/injection, schedule: Q01DX009 (ip), vehicle: saline): 150 % of control and 155 % of control | T/C (dose: 18.7 mg/kg/injection, schedule: Q01DX009 (ip), vehicle: saline): 150 % of control

COC(C)C(O)(C(N)=O)C(C)C (stereo not given)
T/C (dose: 100.0 mg/kg/injection, schedule: Q01DX009 (ip), vehicle: Klucel (hydroxypropylcellulose) (HPC)): 95 % of control | T/C [4]: 100 % of control | T/C (dose: 200.0 mg/kg/injection, schedule: Q01DX009 (ip), vehicle: Klucel (hydroxypropylcellulose) (HPC)): 86 % of control | T/C [5]: 100 % of control | T/C (dose: 400.0 mg/kg/injection, schedule: Q01DX009 (ip), vehicle: Klucel (hydroxypropylcellulose) (HPC)): 90 % of control | T/C [6]: 100 % of control

CCCC=C=CCN(C)C
T/C (dose: 12.5 mg/kg/injection, schedule: Q04DX002 (ip), vehicle: saline): 96 % of control | T/C (dose: 25.0 mg/kg/injection, schedule: Q04DX002 (ip), vehicle: saline): 100 % of control | T/C (dose: 50.0 mg/kg/injection, schedule: Q04DX002 (ip), vehicle: saline): 112 % of control

C(/C=C\C=C/Nc1ccccc1)=Nc1ccccc1
T/C (dose: 10.0 mg/kg/injection, schedule: Q01DX009 (ip), vehicle: saline with Tween-80): 100 % of control | T/C (dose: 20.0 mg/kg/injection, schedule: Q01DX009 (ip), vehicle: saline with Tween-80): 91 % of control | T/C (dose: 40.0 mg/kg/injection, schedule: Q01DX009 (ip), vehicle: saline with Tween-80): 89 % of control

COCCCNS(=O)(=O)c1ncnc2nc[nH]c12
T/C (dose: 132.0 mg/kg/injection, schedule: Q04DX003 (ip), vehicle: saline with Tween-80): 100 % of control | T/C (dose: 200.0 mg/kg/injection, schedule: Q04DX003 (ip), vehicle: saline with Tween-80): 100 % of control | T/C (dose: 300.0 mg/kg/injection, schedule: Q04DX003 (ip), vehicle: saline with Tween-80): 100 % of control

Cc1ccc2c(c1)CN(Cc1ccccc1)CO2
T/C [4]: 104 % of control | T/C [5]: 100 % of control | T/C [6]: 100 % of control

COc1ccc(CCn2nnc3ccccc3c2=O)cc1OC
T/C (dose: 50.0 mg/kg/injection, schedule: Q01DX009 (ip), vehicle: saline with Tween-80): 98 % of control | T/C [2]: 99 % of control | T/C [3]: 105 % of control
